In patent US20020010333A1, “Use of xanthine derivatives for reducing the pathological hyperreactivity of eosinophilic granulocytes, novel xanthine compounds and process for their preparation” (Hoechst Aktiengesellschaft, priority 1994, published 2002):
In brackets after ≈: the same amount, converted by molar mass. Where two headings read alike, the source gives them in different places.

What was measured:
[1] = test system: histamine-induced contraction of isolated trachea; assay: Anticonstrictive action against histamine-induced contraction of isolated tracheal ring chains; parameters: species or system albino guinea pigs; conditions: Cavia porcellus; guinea pig tracheal chain, histamine dihydrochloride 3×10^−7 g/ml, n=6
Text: (§1) The inhibitory action of the compounds of formula I on the proinflammatory early-phase mediators histamine, PAF and leukotriene D4 (LTD4) was investigated on isolated segments of the respiratory tract organs of albino guinea pigs, the inhibition of the contractions which can be caused by these mediators being used as measurement parameters.
(§2) To carry out the experiment, freshly prepared organs of male animals were used in each case. The trachea was divided into its rings, of which 5 tracheal rings in each case were linked with silk thread to give a chain, suspended under a tension of 0.5 g in an organ bath containing Tyrode solution at 37° C. through which was bubbled 95% O2/5% CO2, and contracted by addition of histamine dihydrochloride (bath concentration: 3×10^−7 g/ml) in the absence (control experiment) or in the presence of the test substances.
(§3) Each experiment comprised the parallel investigation of 6 organ preparations (n=6).
(§4) The assessment of the action of the preparation was carried out with the aid of the IC50 values, which represent that concentration in μg/ml at which the organ contraction produced in the control experiment was reduced by half.

[2] = test system: PAF-induced contraction of isolated lung strips; assay: Anticonstrictive action against PAF-induced contraction of isolated lung strips; parameters: species or system albino guinea pigs; conditions: Cavia porcellus; guinea pig lung strips, PAF 10^−9 g/ml, n=6; read-out: Anticonstrictive action (IC50) PAT lung
Text: as §1, §2
(§5) The lungs were cut longitudinally into 2 to 3 strips, using which the process as described above was carried out. The tension, however, was 1 g and the contraction was induced by PAF or LTD4 at a bath concentration of 10^−9 or 10^−8 g/mi.
as §3, §4

[3] = test system: LTD4-induced contraction of isolated lung strips; assay: Anticonstrictive action against LTD4-induced contraction of isolated lung strips; parameters: species or system albino guinea pigs; conditions: Cavia porcellus; guinea pig lung strips, LTD4 10^−8 g/ml, n=6
Text: as §1, §2, §5, §3, §4

[4] = test system: ovalbumin-induced asthma attack; assay: Inhibition of the antigen-induced early-phase reaction (ovalbumin-induced bronchospasm, Konzett-Rössler) in the presensitized guinea pig; format: in vivo, albino guinea pigs; conditions: Cavia porcellus, iv, protected = asthma reaction reduced by at least 40% relative to control; for responders at 10 mg/kg: 10 mg/kg i.v. 15 minutes before antigen; for responders at 25 mg/kg: 25 mg/kg i.v. 15 minutes before antigen
Method: Albino guinea pigs of both sexes having a body weight of 180 to 220 g were sensitized on two successive days by subcutaneous administration of 1 mg of ovalbumin (0.1% strength dissolved in physiological saline solution) in each case. 20 days later, the experiment was carried out according to the method of Konzett and […] (Arch. exp. Path. und Pharmak. (1940) 195: 75). For this purpose, the animals were anesthetized with pentobarbital, artificially ventilated, treated with alcuronium chloride to exclude spontaneous respiration and divided into groups of 6 animals in each case. By means of intravenous administration of ovalbumin as an antigen in a dose of 1 mg/kg, a long-lasting asthma attack was induced as a result of an acute bronchospasm induced by mediators in the course of the asthmatic early reaction, the intensity of which was quantified by means of the contraction height in the thoracogram. The test preparations were likewise administered intravenously 15 minutes before antigen provocation. Instead of this, the animals of the control group received pure 0.9% strength saline solution. To assess the action of the preparation, the number of animals of the respective collective in which the asthma reaction was reduced by at least 40% relative to the control animals was determined.

[5] = test system: human eosinophilic granulocytes; assay: Inhibition of eosinophil activation by late-phase mediators, lucigenin-dependent chemiluminescence; format: cell-based; conditions: 0.5 h, test substance 100 μM, human eosinophils, CL over 30 minutes
Text: The inhibitory action of the xanthines of formula I on the activation ability of human eosinophilic granulocytes by means of the late-phase mediators IL-5, GM-CSF, C5a and PAF was investigated with the aid of the lucigenin-dependent chemiluminescence (CL) reaction.
For this purpose, purified eosinophils were obtained from venous human blood according to known processes (Arch. Dermatol. Res. (1987) 279: 470-477 and J. Invest. Dermatol. (1986) 86: 523-528), pretreated with the test substances at the concentration 100 μM or with pure water (positive control (A)) at 37° C. for 10 minutes and then activated with IL-5 (10^2 U/ml), GM-CSF (10^3 U/ml), C5a (10^−7 M) or PAF (10^−6 M) or treated with water for the determination of the basal activity (B). The CL reaction was monitored over the course of 30 minutes measuring at 37° C. The residual activity of the cells pretreated with the test substances was calculated according to the following formula in percent of that of the positive control: [formula]
CLX describes the activity after stimulation of the cells pretreated with the xanthines,
CLA describes the activity after stimulation of the cells pretreated with water and
CLB describes the basal activity of unstimulated cells pretreated with water.

[6] = test system: eosinophilic granulocytes infiltrating the peritoneal space; assay: Antigen-induced late-phase reaction: infiltration of eosinophilic granulocytes into the peritoneal space (in vivo); parameters: species or system guinea pigs; conditions: 80 mg/kg daily oral for 15 weeks, human serum antigen i.p. weekly, peritoneal lavage 48 hours later; control animals 42.2 5.8%; p<0.01
Method: (§6) In a chronic long-term experiment on guinea pigs provoked with human serum antigen, the inhibitory action of the compounds of the formula I on the pathologically raised chemotactic infiltration of eosinophilic granulocytes into the peritoneal space (in vivo) and their functional state (ex vivo) was investigated. The animals of the preparation group (n=6) were treated with the test substance at a daily oral dose of 80 mg/kg for 15 weeks, while the animals of the control group (n=6) received the vehicle (carboxymethylcellulose). After the third week of treatment, all 12 animals were provoked by weekly intraperitoneal administration of 1 ml of human serum antigen and 48 hours later in each case subjected to a peritoneal lavage with 50 ml of 5% strength glucose solution in which the number of infiltrated eosinophils and, after their isolation on discontinuous Percoll density gradients (purity >95%; V ability >98%), the reactivity to PAF and C5a were determined in a comparison between the two animal collectives by flow cytometry with the aid of actin polymerization and by means of the Boyden chamber technique.

[7] = test system: eosinophilic granulocytes; assay: Antigen-induced late-phase reaction: ex vivo chemotactic migration of eosinophils (Boyden chamber technique); format: in vivo, guinea pigs; conditions: eosinophils of animals treated with 80 mg/kg daily oral, compared with control animals, p<0.05
Method: as §6

[8] = test system: eosinophilic granulocytes; assay: Antigen-induced late-phase reaction: ex vivo actin polymerization of eosinophils (flow cytometry); format: in vivo, guinea pigs; conditions: PAF 10 nM, eosinophils of animals treated with 80 mg/kg daily oral
Method: as §6

[9] = read-out: Protected animals after i.v. administration, % proportion
[10] = read-out: Protected animals after i.v. administration, number (converted)
[11] = C5a 10^−7 M, read-out: Residual activity in % of the positive control A after stimulation with C5a
[12] = GM-CSF 10^3 U/ml, read-out: Residual activity in % of the positive control A after stimulation with GM-CSF
[13] = IL-5 10^2 U/ml, read-out: Residual activity in % of the positive control A after stimulation with IL-5
[14] = PAF 10^−6 M, read-out: Residual activity in % of the positive control A after stimulation with PAF

Structure (SMILES)	melting point [°C]	IC50 [1] [µg/mL]	IC50 [2] [µg/mL]	IC50 [3] [µg/mL]	responders at 10 mg/kg [4, 9] [%]	responders at 10 mg/kg [4, 10] [%]	responders at 25 mg/kg [4, 9] [%]	responders at 25 mg/kg [4, 10] [%]	activity at 100 µM [5, 11] [%]	activity at 100 µM [5, 12] [%]	activity at 100 µM [5, 13] [%]	activity at 100 µM [5, 14] [%]	Number of eosinophils which migrated into the peritoneal space [6] [%]	Chemotactic migration of eosinophils induced by C5a [7]	Chemotactic migration of eosinophils induced by PAF [7]	Initial phase (<10s) of actin polymerization induced by PAF [8]
Cn1c(=O)n(CC(C)(C)O)c(=O)c2[nH]cnc21 [Example 1, 1-(2-Hydroxy-2-methylpropyl)-3-methylxanthine]	215 to 217	–	–	–	–	–	–	–	–	–	–	–	–	–	–	–
CC(=O)CCCCn1c(=O)c2c(ncn2C)n(C)c1=O [Pentoxifylline, 3,7-dimethyl-1-(5-oxohexyl)xanthine, reference compound]	–	30 to 60 (≈ 108 to 216 µM)	3 (≈ 10.8 µM)	30 to 60 (≈ 108 to 216 µM)	17	16.7	33	33.3	56	70	57	45	–	–	–	–
Cn1c(=O)n(CCCCCC(C)(C)O)c(=O)c2[nH]cnc21 [Example 12, 1-(6-Hydroxy-6-methylheptyl)-3-methylxanthine]	166 to 167	3 to 10 (≈ 10.2 to 34 µM)	3 to 6 (≈ 10.2 to 20.4 µM)	6 to 10 (≈ 20.4 to 34 µM)	50	50	67	66.7	–	–	–	–	–	–	–	–
Cn1c(=O)n(CCCCC(C)(O)CO)c(=O)c2[nH]cnc21 (stereo not shown) [Example 8, 1-(5,6-Dihydroxy-5-methylhexyl)-3-methylxanthine]	181 to 182	10 to 30 (≈ 33.7 to 101 µM)	6 (≈ 20.2 µM)	10 (≈ 33.7 µM)	50	50	50	50	–	–	–	–	–	–	–	–
CCOCn1cnc2c1c(=O)n(CCCCC(C)(C)O)c(=O)n2C [Torbafylline, 7-ethoxymethyl-1-(5-hydroxy-5-methylhexyl)-3-methylxanthine, reference compound]	–	60 (≈ 177 µM)	3 to 6 (≈ 8.87 to 17.7 µM)	10 to 30 (≈ 29.6 to 88.7 µM)	0	0	0	0	51	125	58	58	–	–	–	–
CCn1c(=O)n(CC(C)(C)O)c(=O)c2[nH]cnc21 [Example 2, 3-Ethyl-1-(2-hydroxy-2-methylpropyl)xanthine]	–	–	–	–	33	33.3	67	66.7	–	–	–	–	–	–	–	–
CCC(C)(O)CCCCn1c(=O)c2[nH]cnc2n(C)c1=O (stereo not shown) [Example 9, 1-(5-Hydroxy-5-methylheptyl)-3-methylxanthine]	169 to 170	10 to 30 (≈ 34 to 102 µM)	10 (≈ 34 µM)	10 to 30 (≈ 34 to 102 µM)	67	66.7	83	83.3	–	–	–	–	–	–	–	–
Cn1c(=O)n(CCCCC(C)(C)O)c(=O)c2[nH]cnc21 [Example 7, 1-(5-Hydroxy-5-methylhexyl)-3-methylxanthine]	192 to 193	10 to 30 (≈ 35.7 to 107 µM)	10 to 30 (≈ 35.7 to 107 µM)	10 to 30 (≈ 35.7 to 107 µM)	33	33.3	80	80	19	63	42	17	34.9	significant reduction	significant reduction	significantly decreased
Cn1c(=O)n(CCCC(C)(C)O)c(=O)c2[nH]cnc21 [Example 5, 1-(4-hydroxy-4-methylpentyl)-3-methylxanthine]	188 to 189	30 (≈ 113 µM)	3 (≈ 11.3 µM)	10 (≈ 37.6 µM)	–	–	–	–	–	–	–	–	–	–	–	–
CCn1c(=O)n(CCC(C)(C)O)c(=O)c2[nH]cnc21 [Example 4, 3-Ethyl-1-(3-hydroxy-3-methylbutyl)xanthine]	241 to 243	10 (≈ 37.6 µM)	1 to 3 (≈ 3.76 to 11.3 µM)	–	17	16.7	50	50	–	–	–	–	–	–	–	–
CCn1c(=O)n(CCCC(C)(C)O)c(=O)c2[nH]cnc21 [Example 6, 3-Ethyl-1-(4-hydroxy-4-methylpentyl)xanthine]	214 to 216	30 (≈ 107 µM)	3 (≈ 10.7 µM)	1 to 3 (≈ 3.57 to 10.7 µM)	–	–	–	–	–	–	–	–	–	–	–	–
CCn1c(=O)n(CCCCC(C)(O)CC)c(=O)c2[nH]cnc21 (stereo not shown) [Example 11, 3-Ethyl-1-(5-hydroxy-5-methylheptyl)xanthine]	165 to 166	–	–	–	–	–	–	–	–	–	–	–	–	–	–	–
CCn1c(=O)n(CCCCC(C)(C)O)c(=O)c2[nH]cnc21 [Example 10, 3-Ethyl-1-(5-hydroxy-5-methylhexyl)xanthine]	180 to 182	–	–	–	–	–	–	–	–	–	–	–	–	–	–	–
CCn1c(=O)n(CCCCCC(C)(C)O)c(=O)c2[nH]cnc21 [Example 13, 3-Ethyl-1-(6-hydroxy-6-methylheptyl)xanthine]	163 to 165	10 to 30 (≈ 32.4 to 97.3 µM)	1 (≈ 3.24 µM)	–	–	–	–	–	–	–	–	–	–	–	–	–
Cn1c(=O)n(CCC(C)(C)O)c(=O)c2[nH]cnc21 [Example 3, 1-(3-Hydroxy-3-methylbutyl)-3-methylxanthine]	203 to 205	–	–	–	–	–	–	–	–	–	–	–	–	–	–	–
